{"source": "patent US6338862B1", "about": "“Composition and method of use in treating sexual dysfunction using cGMP-specific phosphodiesterase type 5 inhibitors” (priority 2001, dated 2002)", "key": {"[1]": {"system": "isolated human corpus cavernosum", "conditions": "cited from earlier work"}, "men": {"system": "men", "conditions": "controlled clinical trials; cited from earlier work"}, "[2]": {"system": "subjects who had been frequent users of Viagra®", "experiment": "blinded study in volunteers, subjective evaluation whether an adequate, satisfactory erection was achieved", "format": "in vivo, human", "conditions": "oral capsule, out of 12 subjects", "method": "In its preferred embodiment, three composition containing sildenafil citrate 12.5 mg, 25 or 50 mg containing the same amounts of L-arginine 200 mg, ginseng 100 mg, folic acid 0.5 mg, vitamin B6 100 mg and vitamin B12 0.75 mg were formulated in a capsule dosage form with suitable inert diluents to hide the identity of the product. […] In a blinded study, the volunteers were given all six products to test on an ad-lib basis. They were informed that the test includes evaluation of two formulations of sildenafil citrate. The volunteers were asked to evaluate the response subjectively whether an adequate, satisfactory erection was achieved. In its preferred embodiment, three composition containing sildenafil citrate 12.5 mg, 25 or 50 mg, and the same amounts of L-arginine 200 mg, ginseng 100 mg, folic acid 0.5 mg, vitamin B6 100 mg and vitamin B12 0.75 mg were formulated in a capsule dosage form with suitable inert diluents to hide the identity of the product. […] In a blinded study, the volunteers were given all six products to test on an ad-lib basis. They were informed that the test includes evaluation of two formulations of sildenafil citrate. At the lowest dose of 12.5 mg, when given alone, only 3 out of 12 subjects reported erection; when given as the composition described, 7 out of 12 subjects reported satisfactory erection. At 25 mg dose 8 out of 12 subjects reported satisfactory erection while 10 subjects reported satisfactory erection at 25 mg dose when given as the composition described. At 50 mg dose the difference was narrowed to 10 subjects reporting erection when given alone and 11 when given as the composition described. It is concluded from this study that using the combination of ingredients as specified in the composition, the required dose of sildenafil to treat sexual dysfunction can be reduced to achieve the same effect as when given alone but at higher does. The most significant advantage appears at lower doses. […]"}}, "data": [{"smiles": "CCCc1nn(C)c2c(=O)[nH]c(-c3cc(S(=O)(=O)N4CCN(C)CC4)ccc3OCC)nc12.O=C(O)CC(O)(CC(=O)O)C(=O)O", "note": "[Viagra®, 1-[[3-(6,7-dihydro-1-methyL-7-oxo-3-propyL-1H-pyrazolo[4,3-d]pyrimidin-5-yl)-4-ethoxyphenyl]sulfonyl]-4-methylpiperazine citrate]", "values": [{"measurement": "direct relaxant effect", "setting": "[1]", "result": "no direct relaxant effect"}, {"measurement": "proves effective in men", "setting": "men", "result": "7 out of 10"}, {"measurement": "subjects reporting satisfactory erection", "setting": "[2]; 12.5 mg sildenafil citrate dose", "result": 3, "unit": "subjects"}, {"measurement": "subjects reporting satisfactory erection", "setting": "[2]; 25 mg sildenafil citrate dose", "result": 8, "unit": "subjects"}, {"measurement": "subjects reporting satisfactory erection", "setting": "[2]; 50 mg sildenafil citrate dose", "result": 10, "unit": "subjects"}]}]}
